Test results from patent US11180463B2, “Thiazole inner salt compounds, and preparation methods and uses thereof” (Institute of Pharmacology and Toxicology Academy of …, priority 2013, dated 2021).
Where “and” joins values, the source holds several entries; their conditions need not be identical. Equal entries are not always repeated. Structures can show the parent of a compound that is named as a salt. Where two headings read alike, the source gives them in different places. One block for each molecule: values may come before it.

Assays:
[1] = Accelerated stability test (RT40° C., RH75%); format: physicochemical; conditions: for Purity* (%) / Weight gain (%) / Appearance and color: RT40° C., RH75%; for Accelerated test, 3 months: appearance after 3 months at 40° C., humidity 75%, three batches
Experimental: Three batches of sample (prepared according to Example 2) were taken according to the Chinese Pharmacopoeia, 2010 Edition, packaged like packaging for sale (high-density polyethylene bags were used for drug packaging), placed under conditions of RT40° C., RH75% (NaCl saturated solution) to carry out accelerated test, after 1, 2, 3, 6 months, sampled for observation of the compound of Formula I and the compound of Formula A, compared to the data of the 0th day, and the results were shown in Table 1 and Table 2.
One batches of sample as prepared according to Example 3 were taken, packaged like packaging for sale (high-density polyethylene bags were used for drug packaging), placed under conditions of RT40° C., RH75% (NaCl saturated solution), after 1, 2, 3 months, sampled and compared to the data of the 0th day, and the results were shown in Table 3.
Three batches of sample of the compound of Formula A were taken according to the Chinese Pharmacopoeia, 2010 Edition, packaged like packaging for sale (high-density polyethylene bags were used for drug packaging), placed under conditions of RT40° C., RH75% (NaCl saturated solution), after 1, 2, 3 months, sampled and compared to the data of the 0th day, and the results were shown in Table 1 and Table 4.

[2] = test system: rats with diabetes accompanied by hypertension; assay: 24 h urine volume/water intake in rats with diabetes accompanied by hypertension; format: in vivo; conditions: 3rd week
Experimental: In the third week of administration, the rats of each group were solely placed and fed in metabolism cage, and the water intake and urine volume within 24 hours on the 19th, 20th and 21st day were recorded.
In the 3rd week of administering the compound of Example 2, Vurine/Vwater-intake values of rats in 24 hours were calculated.

[3] = test system: RBC surface cross-linked IgG; assay: In vitro breaking erythrocytic surface cross-linked IgG (ELISA, lytic rate); format: cell-based; conditions: RBC of 16 weeks diabetic rats, 37° C., 16-18 h
Description: Because erythrocytic surface cross-linked IgG is a typical AGEs cross-linked structure, the determination of degree that a compound breaks erythrocytic surface cross-linked IgG is well known as a better method for evaluating the ability of the compound in breaking AGEs cross-linked structure (Bruceh. R. Wolffenbuttel, Breakers of advanced glycation end products restore large artery properties in experimental diabetes, Natl. Acad. Sci. U.S.A 1998, 95, 4630).
Method for treating blood cells: 16 weeks diabetic rats were narcotized, blood samples were got from their carotid arteries, added with heparin for anticoagulation, centrifuged at 4° C. and 1000 g for 3 min, the lower layer RBC (red blood cells) was taken; washed with 0.1 mol/L PBS (pH7.4) for 3 times, centrifuged each time at 4° C. and 1000 g for 3 min; and the lower layer RBC was used for test.
In vitro administration method: 0.1 mol/L isotonic PBS (phosphate buffer) (pH7.4) was used as negative control, each of the compounds to be tested formed solutions with different concentrations using the buffer. Into per 900 μL of solution or solvent, 100 μL RBC was added, slightly shook at 37° C. for 16-18 h; centrifuged at 1000 g, 4° C. for 3 min, the supernatant was discarded, the plate was washed with 0.1 mol/L PBS (pH7.4) for 4 times to remove residual compound; centrifuged at 1000 g, 4° C. for 3 min, the lower layer RBC was diluted in ratio of 1:100 for ELISA determination.
Procedure for determination of RBC surface cross-linked IgG content via immunoadsorption method: Multiscreen-HA 0.45 μm 96-well plate (Millipore), sealed with Superblock (300 μL/well), 37° C., 1 h; then drained under 5 mmHg of negative pressure, the whole plate was washed with PBST for 3 times, washed with 0.1M PBS (pH7.4) for twice, shaking plate each time for 1 min; added with RBC (50 μL/well) to be tested, another PBS background control well (OD0) was set; drained under negative pressure; washed with 150 μL of 0.1 mol/L PBS (pH7.4) for 4 times, shaking plate each time for 1 min. After being drained under negative pressure, the 1:500 diluted goat-anti-mouse IgG-HRP (50 μL/well) was added, stood at room temperature for 2 h, drained; washed with 0.1 mol/L PBS (pH7.4), 150 μL/well, for 3 times, shaking plate each time for 1 min; drained; added with o-phenylenediamine (OPD) substrate developing solution (100 μL/well), stood at room temperature in dark for 30 min, the reaction was terminated with 2 mol/L H2SO4 (100 μL/well); the reaction solution (150 μL/well) was sucked out quickly and transferred to a normal 96-well ELISA plate, and OD values were determined under 490 nm.
Calculation of Lytic Rates of the Compounds to be Tested: […]

[4] = test system: rats with diabetes accompanied by hypertension; assay: Blood pressure monitoring, compound of Example 2 alone (Example 7); format: in vivo; conditions: after 4 weeks
long-term diabetic rats = conditions: in vivo, cited from earlier work
[5] = test system: rats with diabetes accompanied by hypertension
Experimental: In the meantime, pure diabetes group and normal control group of the same week-age were also set. The compound of Example 2 (36 mg/kg) was dissolved in distilled water just before use, administered intragastrically, once per day, for 5 weeks.

[6] = 36 mg/kg intragastrically once per day, Mean ± SD, n = 12
[7] = no significant change vs. model

Purity* (%) ([1]; 0th month): 99.9% | Weight gain (%) ([1]; 0th month): 0% | Purity* (%) ([1]; 1st month): 99.8% | Weight gain (%) ([1]; 1st month): 0.04% | Purity* (%) ([1]; 2nd month): 99.7% | Weight gain (%) ([1]; 2nd month): 0.06% | Purity* (%) ([1]; 3rd month): 99.7% | Weight gain (%) ([1]; 3rd month): 0.07%
Molecule: 3-methylcarbonyloxy-4-methyl-thiazole inner salt monohydrate [Example 3]

Molecule: Cc1csc[n+]1CC(=O)[O-] (as salt: salt) [Example 2]
melting point: 169 °C

Molecule: Cc1csc[n+]1CC(=O)[O-] [Example 2]
Vurine [2, 6]: 318.3 ± 106.0 mL | Vwater-intake [2, 6]: 375.0 ± 123.6 mL | Vurine/Vwater-intake ([2]; 36 mg/kg, P < 0.01 vs. model): 0.86 ± 0.05 | Vurine/bodyweight ([2]; first line so headed (r8), 36 mg/kg): 0.88 ± 0.31 mL/g | Vurine/bodyweight ([2]; second line so headed (r9), 36 mg/kg): 1.03 ± 0.34 mL/g | Lytic rate (decrease of OD value, %) ([3]; 1 μM): 27.1 ± 2.2% | Lytic rate (decrease of OD value, %) ([3]; 10 μM): 27.5 ± 2.9% | Lytic rate (decrease of OD value, %) ([3]; 30 μM): 23.2 ± 5.1% | Lytic rate (decrease of OD value, %) ([3]; 100 μM): 27.9 ± 3.0% | Purity* (%) ([1]; 0th month): 100.0% and 99.6% and 99.8% | Weight gain (%) ([1]; 0th month): 0% | Purity* (%) ([1]; 1st month): 99.7% and 99.8% | Weight gain (%) ([1]; 1st month): 0.11% and 0.12% | Purity* (%) ([1]; 2nd month): 99.6% and 99.2% | Weight gain (%) ([1]; 2nd month): 0.12% and 0.13% | Purity* (%) ([1]; 3rd month): 99.8% and 99.3% | Weight gain (%) ([1]; 3rd month): 0.15% and 0.14% and 0.13% | Purity* (%) ([1]; 6th month): 99.9% and 99.6% and 99.8% | Weight gain (%) ([1]; 6th month): 0.18% and 0.15% | Accelerated test, 3 months [1]: no obvious appearance change no obvious appearance change no obvious appearance change | systolic pressure variable coefficient (CV) during time period 10:00-20:00 ([4]; in comparison with the model group, P<0.01): significantly decrease | average heart rate during time period 10:00-20:00 [4, 7]: 255±17 beats/min | average pulse-pressure difference during time period 10:00-20:00 [4, 7]: 46.5±5.7 mmHg

Molecule: Cc1csc[n+]1CC(=O)O.[Na+] [Formula A, 3-carboxymethyl-4metyl-bromothiazolium sodium salt, reference compound]
AGEs fluorescence contents of aorta, myocardium of left ventricle and kidney (long-term diabetic rats; long-term diabetic rats): significantly reduce | aorta compliance of diabetic rats (long-term diabetic rats; rat): improved | cardiac output (long-term diabetic rats; rat): increased | left ventricular function (long-term diabetic rats; rat): significantly improved | Weight gain (%) ([1]; 0th month): 0% | Purity* (%) ([1]; 0th month, sodium salt): 98.8% and 99.1% and 98.7% | Appearance and color ([1]; 1st month): brown, tacky | Purity* (%) ([1]; 1st month, sodium salt): 85.1% and 82.7% and 81.6% | Weight gain (%) ([1]; 1st month, sodium salt): 18.0% and 18.5% and 19.0% | Appearance and color ([1]; 2nd month): dark brown, | Purity* (%) ([1]; 2nd month, sodium salt): 60.6% and 59.8% and 60.3% | Weight gain (%) ([1]; 2nd month, sodium salt): 32.6% and 33.6% and 33.8% | Appearance and color ([1]; 3rd month): dark brown, | Purity* (%) ([1]; 3rd month, sodium salt): 51.2% and 48.5% and 54.6% | Weight gain (%) ([1]; 3rd month, sodium salt): 41.5% and 42.1% and 44.0% | Accelerated test, 3 months ([1]; listed as drawing 8, sodium salt): caking, appearance changing into dark brown caking, appearance changing into dark brown caking, appearance changing into dark brown | Accelerated test, 3 months ([1]; sodium salt): easy to absorb moisture, agglomerate and change color

Molecule: COC(=O)C1=C(C)NC(C)=C(C(=O)OC)C1c1ccccc1[N+](=O)[O-] [Nifedipine]
systolic pressure variable coefficient (CV) ([5]; after administration for 1-5 h): 0.047±0.017 | ejection time (ET) ([5]; after administration for 20 min): 71.8 ± 4.2 ms | average systolic pressure ([5]; after administration for 1 h): 155.2±14.9 mmHg | pressure drop ΔSBP ([5]; after administration for 1.5 h): 25.3±9.3 mmHg | average pulse-pressure difference (PH) ([5]; after administration for 5 h): 48.1±5.1 mmHg | average systolic pressure ([5]; after administration for 5 h): 166.0±15.0 mmHg | ejection time (ET) ([5]; after administration for 5 h): 81.1 ± 5.0 ms | pressure drop ΔSBP ([5]; after administration for 5 h): 15.9±9.3 mmHg | average pulse-pressure difference (PH) ([5]; after administration for 10 h): 48.7±5.2 mmHg | average systolic pressure ([5]; after administration for 10 h): 179.0±14.1 mmHg | pressure drop ΔSBP ([5]; after administration for 10 h): 1.19±3.5 mmHg | time after administration at which the systolic pressure started to rise ([5]; rat, in vivo): 2 h | time after which pulse-pressure difference (PH) started to rise ([5]; rat, in vivo): 1 h | time at which ET recovered the level before administration ([5]; rat, in vivo): 5 h
